Measurements reported in PubChem BioAssay AID1259371 (The Scripps Research Institute Molecular Screening Center, 2018).
The source made the active and inactive calls. No rule for the calls is given here.

Molecular target: Microphthalmia-associated transcription factor (Homo sapiens) (UniProt O75030)
Assay: compounds blocking human MITF signal – biochemical, AlphaScreen, dose response (AID 1259371)
Conditions: AlphaScreen biochemical MITF assay, signal inhibition

Chain of Microphthalmia-associated transcription factor (Homo sapiens) (O75030 whole entry, looked up): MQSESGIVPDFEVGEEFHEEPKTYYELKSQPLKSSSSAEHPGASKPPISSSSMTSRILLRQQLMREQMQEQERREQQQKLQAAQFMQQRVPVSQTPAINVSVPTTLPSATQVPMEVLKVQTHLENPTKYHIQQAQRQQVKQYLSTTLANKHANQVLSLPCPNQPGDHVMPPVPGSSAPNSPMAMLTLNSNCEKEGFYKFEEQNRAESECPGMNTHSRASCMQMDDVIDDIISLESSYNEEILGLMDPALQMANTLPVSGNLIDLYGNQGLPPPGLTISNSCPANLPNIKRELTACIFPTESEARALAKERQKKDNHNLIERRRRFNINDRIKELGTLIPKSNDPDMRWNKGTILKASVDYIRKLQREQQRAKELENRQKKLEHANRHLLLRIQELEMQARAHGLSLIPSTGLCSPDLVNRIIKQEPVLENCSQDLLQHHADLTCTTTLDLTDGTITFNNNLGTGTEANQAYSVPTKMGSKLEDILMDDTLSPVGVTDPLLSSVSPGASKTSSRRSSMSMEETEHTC

| Structure (SMILES) | IC50 |
| --- | --- |
| O=C(/C=C/c1ccco1)NCCCCNC(=O)/C=C/c1ccco1 | 180 nM |
| CCC(C)C(=O)NCc1nnc2n1CCN(C/C=C/c1ccco1)CC2 (stereo not given) | 570 nM |
| N=C1S/C(=C\c2ccco2)C(=O)N1c1nonc1N | 34 nM |
| CCC12c3ccccc3C(c3ccccc31)C1C(=O)NC(=O)C12 (stereo not given) | > 2160 nM (inactive) |
| O=[N+]([O-])c1ccc(N/N=C/c2ccco2)c(S(=O)(=O)N2CCOCC2)c1 | inactive |
| CCOC(=O)N1CCN(C(=S)Nc2ccc(OCC)cc2)CC1 | inactive |
| O=C(/C=C/c1ccco1)NCc1cccc(CNC(=O)/C=C/c2ccco2)c1 | 115 nM |
| O=C1N[C@@H](CSCc2ccccc2)C(=O)N2CCN(C(=O)NC3CCCCC3)C[C@H]12 | inactive |
| COc1cc(N2CCOCC2)ccc1Nc1cc(NC(C)(C)c2ccccc2)c(C(F)(F)F)cn1 | inactive |
| O=C(O)c1coc(CNC(=O)c2cocc2C(=O)O)c1 | inactive |
| COC(=O)c1c(NC(=O)c2ccc([N+](=O)[O-])o2)sc(Cc2ccc3c(c2)OCO3)c1C | inactive |
| S=c1[nH]nc(-c2ccncc2)n1/N=C/C=C/c1ccco1 | 207 nM |
| O=C(NCCc1ccc(O)cc1)c1ccnc(-c2cccs2)c1 | inactive |
| O=C(NNC(=S)Nc1ccccc1)C(=O)NNC(=S)Nc1ccccc1 | inactive |
| CN(CCC#N)C(=O)COC(=O)c1c2c(nc3ccccc13)/C(=C/c1ccco1)CC2 | inactive |
| O=C(c1ccc2nc(-c3ccco3)c(-c3ccco3)nc2c1)N1CCSCC1 | 222 nM |
| Cc1cc(C(=O)O)ccc1-c1ccc(/C=C2/NC(=O)NC2=O)o1 | inactive |
| Nc1cc2c(S(=O)(=O)O)cc(S(=O)(=O)O)cc2cc1S(=O)(=O)O | > 6480 nM (inactive) |
| O=C(N/N=C/C=C/c1ccco1)c1ccncc1 | 24.5 nM |
| CNC(=O)COc1cc(-c2cn[nH]c2)ccc1NC(=O)C1COc2ccc(OC)cc2C1 (stereo not given) | inactive |
| O=C(O)c1ccc(CNC(=O)c2cocc2C(=O)O)o1 | > 7320 nM (inactive) |
| O=C(NCCO)c1ccc2nc(-c3ccco3)c(-c3ccco3)nc2c1 | 396 nM |
| COc1cc(/C=N/N=C2\NC(=O)C(CC(=O)O)S2)ccc1OCc1ccc(C)cc1 (stereo not given) | inactive |
| COC(=O)CSc1nnc(-c2ccco2)n1Cc1ccco1 | 99.3 nM |
| O=c1[nH]cc(N=Cc2ccc([N+](=O)[O-])o2)c(=O)[nH]1 | 7 nM |
| CCOC(=O)c1cc(N2C(=O)C3C4C=CC(C4)C3C2=O)ccc1Cl (stereo not given) | inactive |
| CCCOc1ccc(N)cc1N | inactive |

| Structure (SMILES) | IC50 |
| --- | --- |
| c1ccc2c(c1)ncn2CC1CCN(Cc2cn3ccccc3n2)CC1 | inactive |
| O=C(COc1ccccc1C(=O)OC1CCCC1=O)Nc1cccc(C(F)(F)F)c1 (stereo not given) | inactive |
| CN(CCc1ccccn1)Cc1ccc(F)cc1 | inactive |
| O=C(NCCN1CCOCC1)c1cccc(CN(C(=O)c2nc3ccc(-c4cn[nH]c4)cc3s2)C2CC2)c1 | inactive |
| C=C1c2cccc(O)c2C(O)=C2C(=O)[C@]3(O)C(O)=C(C(N)=O)C(=O)[C@@H](N(C)C)[C@@H]3[C@@H](O)[C@H]12 | 39.9 nM |
| O=C1S/C(=C\c2ccco2)C(=O)N1c1ccccc1Cl | 809 nM |
| C=CCc1cc(Cl)ccc1OCCOCCNCCOC | > 6480 nM (inactive) |
| O=C(O)CCN(CCC(=O)O)c1ccc(O)cc1 | 138 nM |
| O=C1N[C@@H](Cc2ccc(O)cc2)C(=O)N2CCN(C(=O)NCc3ccccc3)C[C@H]12 | > 2160 nM (inactive) |
| Cc1cccc(CN2CCN(S(=O)(=O)c3ccccc3[N+](=O)[O-])CC2)c1 | > 5080 nM (inactive) |
| COc1cc2cc3c(N)c(C(=O)Nc4sc(C)c(C)c4C#N)sc3nc2cc1OC | 409 nM |
| O=C1NC(=S)N/C1=C\c1ccc([N+](=O)[O-])o1 | 239 nM |
| COCCNC(=O)COC(=O)c1cc(-c2ccco2)nc2ccccc12 | inactive |
| O=C(/C=C/c1ccco1)Nc1cccc(NC(=O)/C=C/c2ccco2)n1 | 10.4 nM |
| O=C(O)CSc1cc(Cl)c2nonc2c1[N+](=O)[O-] | inactive |
| O=C(NNC(=O)c1cc(-c2ccco2)nc2ccccc12)NC1CCCCC1 | 126 nM |
| c1coc(CNc2ccc3ncc(-c4ccco4)n3n2)c1 | inactive |
| COc1ccc(S(=O)(=O)N2CCN(Cc3ccccc3[N+](=O)[O-])CC2)cc1 | > 4330 nM (inactive) |
| C[C@H]1C(=O)N2CCN(C(=O)NCc3ccccc3)C[C@@H]2C(=O)N1C | inactive |
| C[C@@H](OCc1ccccc1)[C@@H]1NC(=O)[C@H]2CN(C(=O)Nc3cccc(F)c3)CCN2C1=O | inactive |
| NC(=O)c1cncc(-c2cccs2)c1 | 321 nM |
| COc1cc(OC)c(C(=O)OC2CCCC2=O)cc1OC (stereo not given) | inactive |
| CCOc1cccc(OCC)c2c(C)nc(C)c1-2 | 207 nM |
| C[C@H]1NC(=O)[C@H]2CN(C(=O)NCc3ccccc3)CCN2C1=O | inactive |
| O=C1N[C@@H](Cc2ccc(O)cc2)C(=O)N2CCN(C(=O)NC3CCCCC3)C[C@H]12 | > 2160 nM (inactive) |
| O=C(O)c1cc(S(=O)(=O)Nc2ccc(-n3cnnn3)cc2)ccc1O | inactive |
| COc1ccc(CN2CCN(Cc3ccccc3OC)CC2)cc1 | > 7330 nM (inactive) |

| Structure (SMILES) | IC50 |
| --- | --- |
| CN1C(=O)[C@H]2CN(C(=O)NC3CCCCC3)CCN2C(=O)[C@@H]1Cc1ccccc1 | inactive |
| NC(=O)C1CCN(C(=O)c2cc(-c3ccco3)nc3ccccc23)CC1 | 45.3 nM |
| COc1cc(N2CCOCC2)ccc1Nc1cc(Nc2ccccc2-n2cccn2)c(C(F)(F)F)cn1 | inactive |
| O=C(/C=C/c1ccco1)NC(=S)Nc1cc(C(=O)O)ccc1Cl | 146 nM |
| O=C(NCCO)c1cccc(-c2cccs2)c1 | inactive |
| O=C(O)c1ccc(NC2OC(CO)C(O)C2O)cc1 (stereo not given) | inactive |
| O=C(/C=C/c1ccco1)NC(=S)NNC(=O)c1ccccc1O | > 2160 nM (inactive) |
| COc1ccc(CC2NCCc3cc(OC)c(OC)cc32)cc1OC (stereo not given) | 40 nM |
| NC(=O)COC(=O)c1cc2c(s1)CCC2 | inactive |
| COc1cccc(CN2CCC(CNc3ccc(-c4ccncc4)cc3)C2)c1 (stereo not given) | 285 nM |
| CN(C)CCS(=O)c1cc(-c2cn[nH]c2)ccc1NC(=O)[C@H]1Cc2cc(F)ccc2CN1 (stereo not given in full) | inactive |
| CNC(=O)Nc1ccc2nc(-c3ccco3)c(-c3ccco3)nc2c1 | 47.4 nM |
| OCCNc1cc(-c2cccs2)ncn1 | inactive |
| O=C(OCCCC(=O)N1CCOCC1)c1cc(-c2ccco2)nc2ccccc12 | inactive |
| CCOc1cccc(OCC)c2c(C)[n+](C)c(C)c1-2 | 58.2 nM |
| CN(N=O)c1cc(O)ccc1O | 98.7 nM |
| Cc1cccc(NC(=O)c2ccc(NS(=O)(=O)c3ccc4[nH]cc(C(=O)O)c(=O)c4c3)cc2)c1 | > 1580 nM (inactive) |
| O=C(COC(=O)/C=C/c1ccco1)COC(=O)/C=C/c1ccco1 | 122 nM |
| COc1ccc2nc(-c3ccco3)c(-c3ccco3)nc2c1 | inactive |
| Cc1cc(NC(=O)C2CCN(C(=O)c3ccc(-n4cccc4)cc3)CC2)no1 | inactive |
| COc1ccc(C)cc1NC(=O)C(NCC(O)c1ccccc1)c1ccccc1 (stereo not given) | inactive |
| O=C1N[C@H](Cc2ccccc2)C(=O)N2CCN(C(=O)NC3CCCCC3)C[C@H]12 | 873 nM |
| O=c1[nH]cnc2nc(-c3ccco3)c(-c3ccco3)nc12 | 79.7 nM |
| CCN1CCN(Cc2coc3ccccc3c2=O)CC1 | > 6480 nM (inactive) |
| Cn1c(SCc2cc(=O)n3c(n2)sc2ccccc23)nnc1C(F)(F)F | inactive |
| Cc1[nH][nH]c(=O)c1C(c1ccccc1OCc1ccc(Br)cc1)c1c(C)[nH][nH]c1=O | inactive |
| CC(C)[C@@H]1NC(=O)[C@H]2CN(C(=O)NCc3ccccc3)CCN2C1=O | 819 nM |

| Structure (SMILES) | IC50 |
| --- | --- |
| COc1ccc2c(c1)CC(C(=O)Nc1ccc(-c3cn[nH]c3)cc1OCC(N)=O)CO2 (stereo not given) | inactive |
| COc1ccc2c(c1)C1NC(=S)N(c3cccc(C)c3)C(C)(O2)C1C(=O)Nc1ccc(C)cc1C (stereo not given) | > 5710 nM (inactive) |
| Nc1cc(Br)cnc1N | 61.9 nM |
| O=C(O)c1cccc(-n2cccc2/C=C2/NC(=O)N(c3ccc(Cl)cc3)C2=O)c1 | 42.2 nM |
| C[C@H]1C(=O)N2CCN(C(=O)NC3CCCCC3)C[C@@H]2C(=O)N1C | inactive |
| O=C(/C=C/c1ccco1)NCCCCCCNC(=O)/C=C/c1ccco1 | inactive |
| Cc1ccc(N2C(=O)c3ccccc3NC2c2cccc([N+](=O)[O-])c2)cc1 (stereo not given) | > 5150 nM (inactive) |
| COc1cc(C=Nc2ccc(N(C)C)cc2)cc(I)c1O | > 6480 nM (inactive) |
| CN(C)c1ccc(O)c2c1C[C@H]1C[C@H]3[C@H](N(C)C)C(=O)C(C(N)=O)=C(O)[C@@]3(O)C(=O)C1=C2O | 29.7 nM |
| C=CCNCCOCCOc1ccc(OCC)cc1 | > 6480 nM (inactive) |
| CCCCNCCOc1ccccc1OCC | > 6480 nM (inactive) |
| O=C(/C=C/c1ccco1)NCC(=O)N/N=C/c1ccc(C(=O)O)cc1 | inactive |
| CN(CCOC(=O)/C=C/c1ccco1)Cc1ccccc1 | 48.3 nM |
| C[C@H](O)[C@H]1NC(=O)[C@H]2CN(C(=O)NCc3ccccc3)CCN2C1=O | inactive |
| O=C(Nc1ccc(Cl)cc1Cl)N1CCN2C(=O)[C@@H]3CSCN3C(=O)[C@H]2C1 | inactive |
| C[C@@H]1NC(=O)[C@H]2CN(C(=O)NC3CCCCC3)CCN2C1=O | inactive |
| Nc1cccc(N2C(=O)c3cc(S(=O)O)cc4c(N)c(S(=O)O)cc(c34)C2=O)c1 | inactive |
| Cc1ccc(N2C(=O)C3C(C2=O)C2(CO)C=CC3(C)O2)cc1[N+](=O)[O-] (stereo not given) | > 6480 nM (inactive) |
| Cc1cncc2c(S(=O)(=O)N3CC[C@@H](NC(=O)C(O)c4ccc(F)cc4F)C3)cccc12 (stereo not given in full) | inactive |
| C[C@@H]1NC(=O)[C@H]2CN(C(=O)NCc3ccccc3)CCN2C1=O | inactive |
| COc1cc(/C=C2\C(C)=C([N+](=O)[O-])CS2(=O)=O)ccc1O | 30.8 nM |
| O=C(OC1CCCC1=O)c1ccc(N2CCCC2=O)cc1 (stereo not given) | inactive |
| O=C(Nc1ccc(N2CCOCC2)cc1)c1ccnc(Nc2ncccn2)c1 | inactive |
| Cc1ccc(O)c(NC(=S)NC(=O)/C=C/c2ccco2)c1 | > 6480 nM (inactive) |
